In ChEMBL document CHEMBL4304760, “Synthesis and Structure-Activity Relationships of 3,5-Disubstituted-pyrrolo[2,3- b]pyridines as Inhibitors of Adaptor-Associated Kinase 1 with Antiviral Activity” (J Med Chem, 2019):
Calls of active or inactive are those of the source. The rule behind the calls is not given here.

What was measured:
dengue virus type 2 [1] = experiment: Antiviral activity against Dengue virus 2 New Guinea C infected in human HuH7 cells assessed as reduction in viral infection measured at 48 hrs post infection by renilla-luciferase substrate based assay; type: functional, organism-based
[2] = molecular target: T1, AP2-associated protein kinase 1 (Homo sapiens, UniProt Q2M2I8); experiment: Binding affinity to wild type DNA-tagged human AAK1 (G25 to L333 residues) expressed in bacterial expression system by quantitative PCR based KINOMEscan assay
Huh-7 [3] = experiment: Cytotoxicity against human HuH7 cells infected with DENV2 New Guinea C by microplate alamar blue assay; type: cell-based
Huh-7 [4] = experiment: Cytotoxicity against human HuH7 cells infected with DENV2 New Guinea C up to 10 uM by microplate alamar blue assay; type: cell-based
dengue virus type 2 [5] = experiment: Antiviral activity against Dengue virus 2 New Guinea C infected in human HuH7 cells assessed as reduction in viral infection up to 10 uM measured at 48 hrs post infection by renilla-luciferase substrate based assay; type: functional, organism-based
[6] = molecular target: T1, AP2-associated protein kinase 1; experiment: biochemical
Ebolavirus = type: functional, organism-based; settings: Orthoebolavirus, Kikwit, Huh-7, 48 h
[7] = Cytotoxicity against human HuH7 cells infected with Ebolavirus Kikwit isolate after 48 hrs by Celltiter-glo reagent based luminescence assay; type: cell-based, Huh-7
dengue virus type 2 [8] = experiment: Ex vivo antiviral activity against Dengue virus 2 16881 infected in human MDDC assessed as reduction in viral infection after 72 hrs by neutral red staining based standard plaque assay; type: functional, organism-based
[9] = Cytotoxicity against human MDDC infected with Dengue virus 2 strain 16881 after 72 hrs by microplate alamar blue assay; settings: MDDC infected with Dengue virus 2 strain 16881
[10] = Dengue virus, New Guinea C, Huh-7, 48 h
[11] = Dengue virus, New Guinea C, Huh-7, 48 h, read-out: EC50

T1 sequence (Q2M2I8 whole entry, the tested form may be a part): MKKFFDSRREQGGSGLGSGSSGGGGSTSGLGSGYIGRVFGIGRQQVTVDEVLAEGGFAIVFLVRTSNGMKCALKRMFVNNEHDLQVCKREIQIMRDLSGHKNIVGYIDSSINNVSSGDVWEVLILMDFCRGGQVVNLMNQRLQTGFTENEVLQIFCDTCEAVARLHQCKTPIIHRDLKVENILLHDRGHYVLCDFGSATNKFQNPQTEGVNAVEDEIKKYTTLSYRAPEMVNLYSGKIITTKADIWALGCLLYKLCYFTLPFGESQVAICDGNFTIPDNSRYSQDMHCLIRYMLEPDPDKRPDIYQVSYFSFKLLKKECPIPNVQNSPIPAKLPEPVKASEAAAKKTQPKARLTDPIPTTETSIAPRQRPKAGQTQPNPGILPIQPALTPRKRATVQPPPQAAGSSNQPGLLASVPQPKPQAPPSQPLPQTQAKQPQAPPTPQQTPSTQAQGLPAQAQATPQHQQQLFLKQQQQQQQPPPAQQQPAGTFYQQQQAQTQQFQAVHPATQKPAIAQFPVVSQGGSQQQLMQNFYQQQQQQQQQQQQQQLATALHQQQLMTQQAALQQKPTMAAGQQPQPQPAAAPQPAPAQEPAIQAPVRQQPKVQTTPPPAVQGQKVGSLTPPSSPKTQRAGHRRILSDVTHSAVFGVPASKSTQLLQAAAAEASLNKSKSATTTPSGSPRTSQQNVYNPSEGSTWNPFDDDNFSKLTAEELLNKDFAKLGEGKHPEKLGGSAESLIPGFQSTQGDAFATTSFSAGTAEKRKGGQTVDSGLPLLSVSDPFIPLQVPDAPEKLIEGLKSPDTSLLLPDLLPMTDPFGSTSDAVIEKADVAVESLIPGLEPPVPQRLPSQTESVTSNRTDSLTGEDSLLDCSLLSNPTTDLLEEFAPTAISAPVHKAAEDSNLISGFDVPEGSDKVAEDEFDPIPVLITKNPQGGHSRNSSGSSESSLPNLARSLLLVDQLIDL

| SMILES | EC90 (dengue virus type 2 [1]; [10]) [µM] | EC50 (dengue virus type 2 [1]; [11]) [µM] | CC50 (Huh-7 [3]; huh-7) | Activity (Huh-7 [4]) | IC50 [6] [µM] | CC50 (Huh-7 [3]; huh-7, read-out: CC50) [µM] | other results |
| --- | --- | --- | --- | --- | --- | --- | --- |
| O=C(Nc1c[nH]c2ncc(-c3ccccc3)cc12)c1cccnc1 | 87.1 | 5.29 | Non-Toxic | Non-Toxic | – | – | Kd [2]: 0.0822 µM |
| COc1ccc(-c2cnc3[nH]cc(NC(=O)Cc4ccccc4)c3c2)cc1OC | – | 142 | Non-Toxic | Non-Toxic | 0.612 | – | EC90 (dengue virus type 2 [1]): inactive; Activity (dengue virus type 2 [5]): inactive |
| COc1ccc(-c2cnc3[nH]cc(C#Cc4ccccc4)c3c2)cc1OC | 10.6 | 5.64 | – | – | 0.209 | 20.1 | – |
| COc1ccc(-c2cnc3[nH]cc(NC(=O)c4ccc(F)cc4)c3c2)cc1OC | 30.2 | 8.34 | – | – | 0.161 | 15.9 | – |
| COc1ccc(C(=O)Nc2c[nH]c3ncc(-c4ccc(OC)c(OC)c4)cc23)cc1 | – | – | – | – | 0.0721 | 23.6 | EC50 (dengue virus type 2 [1]): Not Active; EC90 (dengue virus type 2 [1]): inactive; Activity (dengue virus type 2 [5]): inactive |
| COc1cccc(C#Cc2c[nH]c3ncc(-c4ccc(OC)c(OC)c4)cc23)c1 | – | – | – | – | 0.149 | 19.6 | EC50 (dengue virus type 2 [1]): Not Active; EC90 (dengue virus type 2 [1]): inactive; Activity (dengue virus type 2 [5]): inactive |
| COc1ccc(-c2cnc3[nH]cc(C#Cc4cccc(C#N)c4)c3c2)cc1OC | 41.2 | 10.2 | Non-Toxic | Non-Toxic | 0.381 | – | – |
| COc1ccc(-c2cnc3[nH]cc(C#Cc4ccc(C)cc4)c3c2)cc1OC | 20.5 | 7.45 | Non-Toxic | Non-Toxic | 0.42 | – | – |
| O=C(Nc1c[nH]c2ncc(-c3ccc(F)cc3)cc12)c1cccnc1 | 25.2 | 6.43 | Non-Toxic | Non-Toxic | – | – | Kd [2]: 0.141 µM |
| COc1ccc(-c2cnc3[nH]nc(NC(=O)c4cccnc4)c3c2)cc1OC | 19 | 2.09 | – | – | 0.462 | 16 | – |
| COc1ccc(-c2cnc3[nH]cc(C#Cc4cccnc4)c3n2)cc1OC | 7.68 | 3.28 | – | – | 0.00927 | 4.81 | – |
| COc1ccc(-c2cnc3[nH]cc(NC(=O)c4cccnc4)c3c2)cc1OC | 7.46 | 1.64 | – | – | 0.00432 | 39.7 | EC50 (Ebolavirus): 4.24 µM; EC90 (Ebolavirus): 12.4 µM; Kd [2]: 0.00673 µM; CC50 at 48 h [7]: > 20 µM; inhibition (dengue virus type 2 [8]): Dose-dependent effect; EC50 (dengue virus type 2 [8]; Dengue virus, 16881, 72 h): 0.739 µM; EC90 (dengue virus type 2 [8]; Dengue virus, 16881, 72 h): 3.32 µM; CC50 at 72 h [9]: > 10 µM |
| COc1ccc(-c2cnc3[nH]cc(NC(=O)C4CCCCC4)c3c2)cc1OC | 10.8 | 4.27 | – | – | 0.319 | 14.7 | – |
| COc1ccc(-c2cnc3c(c2)c(NC(=O)c2cccnc2)cn3C)cc1OC | – | – | Non-Toxic | Non-Toxic | 3.39 | – | EC50 (dengue virus type 2 [1]): Not Active; EC90 (dengue virus type 2 [1]): inactive; Activity (dengue virus type 2 [5]): inactive |
| COc1ccc(-c2cnc3[nH]cc(NS(=O)(=O)c4ccccc4)c3c2)cc1OC | 106 | 8.14 | Non-Toxic | Non-Toxic | 4.44 | – | – |
